Source: ChEMBL document CHEMBL5543126, “Combinatorial Ubiquitination REal-time PROteolysis (CURE-PROs): A Modular Platform for Generating Reversible, Self-Assembling Bifunctional Targeted Degraders” (J Med Chem, 2024)
Activity calls are given as the source filed them. The rule behind the calls is not given here.

Assays:
Type in all cases: cell-based
[1] = biological target: T1, von Hippel-Lindau disease tumor suppressor/Bromodomain-containing protein 4 (Homo sapiens, UniProt O60885+P40337); test: PROTAC activity at BRD4/VHL in human MCF7 cells assessed as reduction in BRD4 level incubated for 24 hrs in presence of BRD4 based ligand ((4S)-6-(4-chlorophenyl)-4-(2-(ethylamino)-2-oxoethyl)-1-methyl4Hbenzo[f][1,2,4]triazolo [4,3-a][1,4]diazepin-8-yl)boronic acid by Western blot based Combinatorial Ubiquitination Real-time PROteolysis analysis
T1 sequence (P40337 whole entry, looked up, other chains not shown): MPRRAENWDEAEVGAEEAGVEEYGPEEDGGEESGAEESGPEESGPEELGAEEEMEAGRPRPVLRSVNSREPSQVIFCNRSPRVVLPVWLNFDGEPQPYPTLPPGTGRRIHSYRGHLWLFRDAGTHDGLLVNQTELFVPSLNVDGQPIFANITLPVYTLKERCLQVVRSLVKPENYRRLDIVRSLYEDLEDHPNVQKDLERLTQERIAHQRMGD

[2] = biological target: T1, von Hippel-Lindau disease tumor suppressor/Bromodomain-containing protein 4; test: (§1) PROTAC activity at BRD4/VHL in human MCF7 cells assessed as induction of BRD4 degradation by measuring residual activity at 1 uM incubated for 24 hrs in presence of 10 uM VHL based ligand (2S,4R)-1-((S)-2-(2,3-dihydroxybenzamido)-3,3-dimethylbutanoyl)-4-hydroxy-N-(4-(4-methylthiazol-5-yl)benzyl)pyrrolidine-2-carboxamide by Western blot based Combinatorial Ubiquitination Real-time PROteolysis analysis
[3] = biological target: T1, von Hippel-Lindau disease tumor suppressor/Bromodomain-containing protein 4; test: as §1, with “of” for “of 10 uM”
[4] = biological target: T1, von Hippel-Lindau disease tumor suppressor/Bromodomain-containing protein 4; test: as §1, with “at VHL/BRD4” for “at BRD4/VHL”, “degradation” for “degradation by measuring residual activity”, “at 10” for “at 1”, “of” for “of 10 uM”, “VHL ligand” for “VHL”, “based” for “based ligand”
[5] = biological target: T1, von Hippel-Lindau disease tumor suppressor/Bromodomain-containing protein 4; test: as §1, with “30 nM” for “1 uM”, “1” for “10”
[6] = biological target: T1, von Hippel-Lindau disease tumor suppressor/Bromodomain-containing protein 4; test: PROTAC activity at VHL/BRD4 in HEK293 cells assessed as induction of BRD4 degradation by measuring Tmax at 3 uM measured every 15 mins for 24 hrs in presence of VHL based ligand (2S,4R)-1-((S)-2-(2,3-dihydroxybenzamido)-3,3-dimethylbutanoyl)-4-hydroxy-N-(4-(4-methylthiazol-5-yl)benzyl)pyrrolidine-2-carboxamide by HiBiT based Combinatorial Ubiquitination Real-time PROteolysis analysis
[7] = biological target: T1, von Hippel-Lindau disease tumor suppressor/Bromodomain-containing protein 4; test: as §1, with “at 3” for “at 1”, “of 100 nM” for “of 10 uM”
[8] = biological target: T1, von Hippel-Lindau disease tumor suppressor/Bromodomain-containing protein 4; test: as §1, with “300 nM” for “1 uM”, “of” for “of 10 uM”
[9] = biological target: T1, von Hippel-Lindau disease tumor suppressor/Bromodomain-containing protein 4; test: as §1, with “300 nM” for “1 uM”
[10] = biological target: T1, von Hippel-Lindau disease tumor suppressor/Bromodomain-containing protein 4; test: as §1, with “100 nM” for “1 uM”
[11] = biological target: T1, von Hippel-Lindau disease tumor suppressor/Bromodomain-containing protein 4; test: as §1, with “at 3” for “at 1”, “of 300 nM” for “of 10 uM”
[12] = biological target: T1, von Hippel-Lindau disease tumor suppressor/Bromodomain-containing protein 4; test: as §1, with “300 nM” for “1 uM”, “100 nM” for “10 uM”
[13] = biological target: T1, von Hippel-Lindau disease tumor suppressor/Bromodomain-containing protein 4; test: (§2) PROTAC activity at VHL/BRD4 in HEK293 cells assessed as induction of BRD4 degradation by measuring Tmax at 10 uM measured every 15 mins for 24 hrs in presence of BRD4 based ligand ((4S)-6-(4-chlorophenyl)-4-(2-(ethylamino)-2-oxoethyl)-1-methyl4Hbenzo[f][1,2,4]triazolo [4,3-a][1,4]diazepin-8-yl)boronic acid by HiBiT based Combinatorial Ubiquitination Real-time PROteolysis analysis
[14] = biological target: T1, von Hippel-Lindau disease tumor suppressor/Bromodomain-containing protein 4; test: (§3) PROTAC activity at BRD4/VHL in human MCF7 cells assessed as induction of BRD4 degradation by measuring residual activity at 100 nM incubated for 24 hrs in presence of 10 uM BRD4 based ligand ((4S)-6-(4-chlorophenyl)-4-(2-(ethylamino)-2-oxoethyl)-1-methyl4Hbenzo[f][1,2,4]triazolo [4,3-a][1,4]diazepin-8-yl)boronic acid by Western blot based Combinatorial Ubiquitination Real-time PROteolysis analysis
[15] = biological target: T1, von Hippel-Lindau disease tumor suppressor/Bromodomain-containing protein 4; test: as §2, with “maximal level of degradation” for “Tmax”, “1” for “10”
[16] = biological target: T1, von Hippel-Lindau disease tumor suppressor/Bromodomain-containing protein 4; test: as §3, with “10 uM” for “100 nM”, “100 nM” for “10 uM”
[17] = biological target: T1, von Hippel-Lindau disease tumor suppressor/Bromodomain-containing protein 4; test: as §3, with “of 3” for “of 10”
[18] = biological target: T1, von Hippel-Lindau disease tumor suppressor/Bromodomain-containing protein 4; test: as §3, with “10 uM” for “100 nM”
[19] = biological target: T1, von Hippel-Lindau disease tumor suppressor/Bromodomain-containing protein 4; test: as §3, with “3 uM” for “100 nM”, “of” for “of 10 uM”
[20] = biological target: T1, von Hippel-Lindau disease tumor suppressor/Bromodomain-containing protein 4; test: as §3, with “10 uM” for “100 nM”, “3” for “10”
[21] = biological target: T1, von Hippel-Lindau disease tumor suppressor/Bromodomain-containing protein 4; test: as §3, with “3 uM” for “100 nM”
[22] = biological target: T1, von Hippel-Lindau disease tumor suppressor/Bromodomain-containing protein 4; test: as §3, with “300” for “100”, “of” for “of 10 uM”
[23] = biological target: T1, von Hippel-Lindau disease tumor suppressor/Bromodomain-containing protein 4; test: as §3, with “1 uM” for “100 nM”
[24] = biological target: T1, von Hippel-Lindau disease tumor suppressor/Bromodomain-containing protein 4; test: as §2, with “degradation rate” for “Tmax”, “0.3” for “10”

For `CCNC(=O)C[C@@H]1N=C(c2ccc(Cl)cc2)c2cc(B(O)O)ccc2-n2c(C)nnc21`, the Activity [1] was “inactive”, the Activity [2] was 20% and the Activity [3] was 64%. For the same compound, the Activity [4] was “Active”, the Activity [5] was 96% and the Tmax [6] was 18 h. It also gave an Activity [7] of 51%, an Activity [8] of 100% and an Activity [9] of 40%. For the same compound, the Activity [10] was 87%, the Activity [11] was 39% and the Activity [12] was 72%.

With `Cc1ncsc1-c1ccc(CNC(=O)[C@@H]2C[C@@H](O)CN2C(=O)[C@@H](NC(=O)c2cccc(O)c2O)C(C)(C)C)cc1` the Tmax [13] was 22.2 h, the Activity [14] was 87% and the Emax [15] was 80%. It also gave an Activity [16] of 55%, an Activity [17] of 74% and an Activity [18] of 6%. For the same compound, the Activity [19] was 73%, the Activity [20] was 7% and the Activity [21] was 16%. The Activity [22] was 100%, the Activity [23] was 20% and the Activity [24] was 0.144 h⁻¹.
